# Measurements published in patent publication US20180008592A1, “TREATMENT OF UREMIC PRURITUS” (TREVI THERAPEUTICS, INC., priority 2016, published 2018).
# What was measured:
# Type in all cases: in vivo, human
# [1] = test system: renally impaired patients on hemodialysis with moderate or severe uremic pruritus; experiment: Same trial: Hospital Anxiety and Depression Scale (HADS)
# Excerpt: (§1) The primary endpoint was the change from Baseline to the Evaluation Period (Study weeks 7 and 8) in the modified intent-to-treat population. Quality of life-related secondary endpoints included change from Day 1 to the Evaluation Period in itching-related quality of life (using the Skindex-10 (FIG. 8)) and itching-related sleep disruption (using the Itch Medical Outcomes Study [Itch MOS] (FIG. 9), SLP-9). The Hospital Anxiety and Depression Score (HADS) used as a general measure of anxiety and depression. All patient-reported outcomes measures were selected based on their prior validation in uremic pruritus patients specifically or in the dialysis population more generally.
# (§2) The primary and quality of life secondary endpoint analyses used a mixed model repeated measures ANCOVA with the main effects of treatment and site and baseline worst itch NRS score as the covariate. The model included time (i.e. Visit) as a factor variable and treatment*time (with placebo as the reference category) with an unstructured covariance structure for repeated measures. Data from all post-baseline visits were used to fit the model. For the primary endpoint, the baseline value was defined as the mean of worst itch daytime and nighttime NRS scores used for satisfying the protocol inclusion criterion #5 (mean worst itching NRS≧4.5 based on a total of 3 daytime and 3 nighttime measurements from 3 dialysis visits). For the secondary endpoints, the baseline value was based on a measurement taken on Study Day 1, prior to randomization. A pre-specified step-down procedure was used. The first comparison was of nalbuphine 120 mg BID dose vs. placebo. If the first comparison was significant at the p<0.05 level, then the comparison between the nalbuphine 60 mg BID dose vs. placebo would be conducted. Patients with a 15% or greater response in worst itch NRS were analyzed using a Cochran-Mantel-Haenszel (CMH) test. Analysis of the Itch MOS utilized the SLP-9 scoring algorithm.
# (§3) In the first 2 weeks of treatment, patients were blindly force-titrated to their assigned target dose, with the patients in the active arms reaching a dose of 60 mg BID (NAL 60) after the first week and, for those in the high dose group, to 120 mg BID (NAL 120) after the second week. Study drug was administered in blister cards containing the labeled morning and evening doses for each day of the week. Subsequently, patients continued stable doses of the study drug for an additional 6 weeks and were then washed off study drug and followed for another 2 weeks for itching intensity and safety. […]
# [2] = test system: renally impaired patients on hemodialysis with moderate or severe uremic pruritus; experiment: Randomized double-blind placebo-controlled trial: Worst Itching Intensity Numerical Rating Scale (NRS); settings: for Change from Baseline to the Evaluation Period NRS (mean SD): weeks 7 and 8, scale 0-10; for patients with ≧15% change from baseline to the Evaluation Period in the NRS: p=NS; for NRS, Change from Baseline to the Evaluation Period, mean (SD): severe pruritus subgroup (Baseline NRS ≧ 7), post-hoc
# Experimental: (§4) This clinical study was a parallel, double-blind, placebo-controlled trial in which renally impaired patients on hemodialysis with moderate or severe uremic pruritus were randomized in a 1:1:1 ratio to nalbuphine ER tablets to a target dose of 120 mg BID or 60 mg BID, or matching placebo tablets BID. Medications taken for treatment of pruritus (“antipruritic medications”) were not prohibited, but their use was recorded throughout the study. Use of skin emollients was also not restricted. A placebo comparator was chosen because there are no approved treatments for uremic pruritus in the United States or Europe or an established standard of care that could serve as an active control.
# (§5) The primary objectives were to evaluate the effects on itching intensity using a Worst Itching Intensity Numerical Rating Scale (NRS, 0 [no itching]-10 [worst possible itching]) (FIG. 7) as well as safety and tolerability. The study was conducted at 46 United States investigative sites and 6 investigative sites in Romania and Poland. The Sponsor oversaw the conduct of the trial and an independent unblinded Data Safety Monitoring Board reviewed safety data approximately once a month during the conduct of the trial.
# To be eligible, patients had to have been on hemodialysis for 3 months, have a Patient Assessed Disease Severity (PADS) category of “B” or “C”, and a mean of 6 Worst Itching Numerical Rating Scale Scores during the week prior to randomization ≧4.5 on an 11-point scale (0, “no itching” to 10, “worst possible itching”) with at least 2 scores ≧5.0.
# as §1
# Patients were analyzed by group to which they were randomized.
# as §2
# as §3, with “week.” for “week. Subsequently, patients continued stable doses of the study drug for an additional 6 weeks and were then washed off study drug and followed for another 2 weeks for itching intensity and safety.”
# [3] = test system: renally impaired patients on hemodialysis with moderate or severe uremic pruritus; experiment: Same trial: safety and tolerability (adverse events, discontinuation)
# Excerpt: The term “adverse event” (AE) as used herein is defined as any untoward medical occurrence in a clinical investigation patient reported on or after the first screening date. […] An AE can therefore be any unfavorable and unintended sign (including an abnormal laboratory finding), symptom whether or not related to the medicinal (investigational) product, or disease temporally associated with the use of a medicinal (investigational) product. Typical adverse events include nausea, vomiting, somnolence, dizziness and hallucination. In accordance with the present invention, the rate of adverse events after the treatment is substantially the same as the rate of adverse events after administering a placebo for the same period of time.
# as §4, §5
# In the first 2 weeks of treatment, patients were blindly force-titrated to their assigned target dose, with the patients in the active arms reaching a dose of 60 mg BID (NAL 60) after the first week and, for those in the high dose group, to 120 mg BID (NAL 120) after the second week. Study drug was administered in blister cards containing the labeled morning and evening doses for each day of the week. Subsequently, patients continued stable doses of the study drug for an additional 6 weeks and were then washed off study drug and followed for another 2 weeks for itching intensity and safety. No down-titration was permitted during the study, although patients who missed 6 or more consecutive doses during the Stable Dose Period (Weeks 3-8) could, with the Medical Monitor's approval, re-start treatment with blinded re-titration of just the morning or evening dose for 3 days before returning to the original dose. Patients were allowed to remain on their background antipruritic medications such as antihistamines and the use of these medications and indication for treatment was collected.
smiles,measurement,setting,value
"Cl.Oc1ccc2c3c1O[C@H]1[C@@H](O)CC[C@@]4(O)[C@@H](C2)N(CC2CCC2)CC[C@]314 [Nalbuphine, 17-(cyclobutylmethyl)-4,5α-epoxymorphinian-3,6α, 14-triol, hydrochloride]","HADS Anxiety Subscale (0-21), change from Baseline to the Evaluation Period, mean (SD)","[1]; 60 mg BID, N = 128",−1.72 (3.0)
same,"HADS Depression Subscale (0-21), change from Baseline to the Evaluation Period, mean (SD)","[1]; 60 mg BID, N = 128",−0.68 (3.1)
same,"HADS Anxiety Subscale (0-21), change from Baseline to the Evaluation Period, mean","[1]; 120 mg BID, N = 120",−1.64
same,"HADS Depression Subscale (0-21), change from Baseline to the Evaluation Period, mean","[1]; 120 mg BID, N = 120",−1.03
same,difference vs. placebo in worst itching NRS (primary endpoint),[2]; 60 mg BID,no significant difference
same,Change from Baseline to the Evaluation Period NRS (mean SD),"[2]; 60 mg BID ER tablets, N = 128, baseline NRS 6.9 (1.4)",−3.1 (2.4)
same,"Difference in the Change from Baseline to the Evaluation Period (LSMEAN, SE) vs. placebo","[2]; 60 mg BID, 95% CI (−0.84, 0.37), p = 0.441",−0.24 (0.31)
same,patients with ≧15% change from baseline to the Evaluation Period in the NRS,[2]; 60 mg BID,80.5%
same,Change from Baseline to the Evaluation Period NRS (mean SD),"[2]; 120 mg BID ER tablets, N = 120, baseline NRS 6.9 (1.5), hydrochloride",−3.5 (2.4)
same,development of tolerance to the effect on itch,"[2]; 120 mg BID, 8-week treatment period",no apparent development of tolerance
same,"Difference in the Change from Baseline to the Evaluation Period (LSMEAN, SE) vs. placebo","[2]; 120 mg BID, 95% CI (−1.34, −0.13), p = 0.017",−0.73 (0.31)
same,reduction in itching intensity,"[2]; 120 mg BID, moderate and severe uremic pruritus",49%
same,patients with ≧15% change from baseline to the Evaluation Period in the NRS,[2]; 120 mg BID,84.5%
same,"NRS, Change from Baseline to the Evaluation Period, mean (SD)","[2]; 60 mg BID, N = 61, baseline 8.0 (0.9)",−3.4 (2.6)
same,"NRS, Change from Baseline to the Evaluation Period, mean (SD)","[2]; 120 mg BID, N = 63, baseline 8.2 (0.8), p < 0.01",−4.5
same,improvement of itching intensity and Itch MOS compared with placebo,"[2]; severe subgroup (Baseline NRS ≧7.0), 60 mg BID",Neither itching intensity nor Itch MOS improved significantly
same,decrease of mean itching intensity,"[2]; severe subgroup (Baseline NRS ≧7.0), 120 mg BID",55%
same,absolute reduction of mean itching intensity (NRS),"[2]; severe subgroup (Baseline NRS ≧7.0, n=179), 120 mg BID, baseline 8.2 (0.8), p=0.007 vs. placebo",4.5 (2.5)
same,Adverse Events Leading to Discontinuation: Dizziness,[3]; 60 mg BID,0.8%
same,Adverse Events Leading to Discontinuation: Hallucination,[3]; 60 mg BID,1.6%
same,Adverse Events Leading to Discontinuation: Nausea,[3]; 60 mg BID,9.5%
same,Adverse Events Leading to Discontinuation: Somnolence,[3]; 60 mg BID,4.0%
same,Adverse Events Leading to Discontinuation: Vomiting,[3]; 60 mg BID,9.5%
same,"Adverse Events Leading to Discontinuation, number of patients","[3]; 60 mg BID, N = 128",33
same,"Adverse Events Leading to Discontinuation, percent of patients","[3]; 60 mg BID, N = 128",26.2%
same,Serious Adverse Events (incidence),"[3]; 60 mg BID, N = 128, hydrochloride",12.7%
same,Serious Adverse Events (incidence),"[3]; 60 mg BID, N = 128, listed as NAL 60, hydrochloride",12.7%
same,Adverse Events Leading to Discontinuation: Dizziness,[3]; 120 mg BID,2.5%
same,Adverse Events Leading to Discontinuation: Hallucination,[3]; 120 mg BID,2.5%
same,Adverse Events Leading to Discontinuation: Nausea,[3]; 120 mg BID,10.0%
same,Adverse Events Leading to Discontinuation: Somnolence,[3]; 120 mg BID,1.7%
same,Adverse Events Leading to Discontinuation: Vomiting,[3]; 120 mg BID,5.0%
same,"Adverse Events Leading to Discontinuation, number of patients","[3]; 120 mg BID, N = 120",27
same,"Adverse Events Leading to Discontinuation, percent of patients","[3]; 120 mg BID, N = 120",22.5%
same,Serious Adverse Events (incidence),"[3]; 120 mg BID, N = 120, hydrochloride",6.7%
same,Serious Adverse Events (incidence),"[3]; 120 mg BID, N = 120, listed as NAL 120, hydrochloride",6.7%
same,"mood effects (adverse event reporting, Skindex-10 mood domain, HADS)","[3]; ER tablets, both doses",neutral in mood effects
same,safety profile,"[3]; ER tablets, both doses",no adverse safety trends other than those expected from a centrally-acting opioid
